Results published in patent publication US9040691B2, “Hydroxymethylaryl-substituted pyrrolotriazines as ALK1 inhibitors” (BAYER INTELLECTUAL PROPERTY GMBH, priority 2011, dated 2015).

Columns and labels:
[1] = target: T1, ALK1 kinase (Homo sapiens (Human), UniProt P37023); experiment: ALK1 kinase assay (ProQinase protocol); type: biochemical; conditions: ProQinase radiometric assay, casein, γ-33P-ATP
Protocol: B-1b. ALK1 Kinase Assay (ProQinase Protocol)
ALK1 (Invitrogen, Carlsbad, Calif., USA) kinase activity was measured at ProQinase GmbH (Freiburg, Germany) in a radiometric assay using γ-^33P-ATP and casein (Sigma, St. Louis, Mo., USA) as substrate in 96-well PerkinElmer FlashPlates™ (Boston, Mass., USA). The compounds were tested at 10 concentrations in the range of 1×10^−4 M to 3×10^−9 M in a total volume of 50 μl with a final DMSO concentration of 1% each. The assay components were mixed in the order: • 20 μl assay buffer (70 mM HEPES-NaOH, pH 7.5, 3 mM MgCl2, 3 mM MnCl2, 2 μM sodium orthovanadate, 1.2 mM DTT); • 5 μl γ-^33P-ATP (1.0 μM in water, approx. 6×10^5 cpm per well); • 5 μl test compound solution (in 10% DMSO); • […] (200 μg/ml, 1.0 μg/50 μl final concentration)/enzyme (4 μg/ml, 20 ng/50 μl=5.5 nM final concentration) solution (1:1 mixture).
The reaction mixtures were incubated at 30° C. for 60 minutes and stopped by adding 50 μl 2% (v/v) phosphoric acid. The plates were aspirated and washed twice with 200 μl 0.9% (w/v) sodium chloride. Incorporation of ^33Pi was determined with a microplate scintillation counter (Microbeta, Wallac). All assays were performed using a BecicmanCoulter/SAGIAN™ Core System.
Median values obtained from unspecific substrate binding of labelled. ATP were set as background level, while median values measured in the absence of any inhibitor were considered to reflect full activity of ALK1 kinase. The background activity (ba) was subtracted from the full activity (fa) value as well as from the values obtained from the test compound containing samples (test compound activity, tea). The residual activity in the latter was calculated as follows: residual activity (%)=100×[(tca−ba)/(fa−ba)]
The residual activities for each concentration and the compound IC50 values were calculated using Quattro Workflow V3.1.0 (Quattro Research GmbH, Munich, Germany). The fitting model for the IC50 determinations was “Sigmoidal response (variable slope)” with parameters “top” fixed at 100% and “bottom” at 0%. The fitting method used was a least-squares fit.

[2] = test system: hSmad7 mRNA in BMP9-stimulated HUVEC; experiment: Smad7 target gene induction: HUVEC cell assay and TaqMan expression analysis; type: cell-based, human; conditions: Homo sapiens, 3 h, 1 ng/ml BMP9 for 3 h, Smad7 mRNA by TaqMan
Protocol: B-2b. Smad7 Target Gene Induction: HUVEC Cell Assay and TaqMan Expression Analysis
The in vitro potency of ALK1 inhibitors was tested in a cell-based assay. Bone morphogenetic protein 9 (BMP9) induces Smad7 mRNA expression in human vascular endothelial cells (HUVEC) via activation of ALK1.
1.5×10^4 passage 2 HUVECs (Lonza, Basel, Switzerland) per well were seeded in a 96-well plate in EBM-2 medium containing EGM-2 additives and growth factors (Lonza, CC-3156 and CC-4176). After 4 h, the medium was changed to EBM-2 with 0.2% fetal calf serum (FCS) and the cells were starved for 20 h in a humidified incubator at 37° C., 5% CO2. Test compounds were added at 11 different concentrations between 0 and 10 000 nM one hour prior to stimulation of the cells for 3 h with recombinant human BMP9 protein at 1 ng/ml (dissolved in 4 mM hydrochloric acid, 0.1% BSA at 10 μg/ml; R&D Systems, Minneapolis, Minn., USA, 3209BP). Medium was removed, and the cells were lysed in 100 μl RLT buffer (Qiagen, Hilden, Germany). RNA was isolated using the Qiagen RNeasy 96 Kit (order-No. 74182) according to manufacturer's instructions and eluted from the columns with 65 μl RNAse-free water. Reverse transcription for quantitative RT-PCR was carried out with the Omniscript Kit (Qiagen, 205113) in RNAse-free 96-well round-bottom plates. Per well, 6.8 μl of a reaction master mix containing 2 μl 10×RT-buffer, 2 μl dNTPs (5 mM each), 1.6 μl random primer N6 (125 μM), 0.25 μl Rnase Out (40 U/μl) and 1 μl Omniscript Reverse Transcriptase were added. After addition of 13.2 μl of the RNA/water mixture, plate contents were mixed, incubated for 1 h at 37° C. and the total volume adjusted to 100 μl in each well by addition of 80 μl RNAse-free water.
The quantification of human Smad7 mRNA was carried out on a TaqMan using the Eurogentec qPCR Mastermix Plus (RT-QP2X-03-075+; Cologne, Germany) and employing human L32 as housekeeping reference mRNA. Per qPCR reaction, 2.8 μl primer mix, 10 μl master mix, 2.2 μl water and 5 μl cDNA were added. Thermal cycling parameters were 2 min at 50° C., followed by 10 min at 95° C., followed by 40 cycles of melting at 95° C. for 15 sec and annealing/extending at 60° C. for 1 min.
Smad7 mRNA levels induced by 1 ng/ml BMP9 without the addition of any inhibitor were set at 100% induction, and % inhibition was calculated for each test compound with this value. For each test compound, every value was determined in quadruplicate. The IC50 values were determined using Microsoft Excel. The fitting method used was a weighted, unconstrained ML-fit.

[3] = target: T1, ALK1 kinase; experiment: In vitro enzyme inhibition using scintillation of incorporated radio label (flashplate assay); type: biochemical; conditions: biotinylated α-casein, 33P-ATP, 500 nM ATP
Protocol: B-1a. In Vitro Enzyme Inhibition Using Scintillation of Incorporated Radio Label (Flashplate Assay)
Test compounds diluted in DMSO are mixed with a suitable substrate/co-substrate (here: biotinylated α-casein and ^33P-ATP) in a corresponding assay buffer. Addition of the enzyme of interest (here: ALK1 kinase) starts the enzyme reaction. The enzyme-catalyzed incorporation of radio label into the substrate is measured via scintillation. Incorporated radio label is separated from free radio label via specific binding of the biotinylated substrate to strepavidin-coated microtiter plates (flashplates) and concomitant washing steps. The scintillation signal intensity (counts per minutes, cpm) is proportional to the enzyme activity. Enzyme inhibition results in a decreased signal intensity. IC50 values of the test compounds are determined by cpm-versus-[I] plots.
Reaction buffer contains 50 mM Tris pH 8.0 (Sigma), 1 mM MnCl2 (Sigma), 0.01% Nonidet P40 (Fluka), 0.5× Complete EDTA-free protease inhibitors (Roche; contains a mixture of several protease inhibitors for the inhibition of serine and cysteine (but not metallo-) proteases; 1 tablet contains protease inhibitors sufficient for a 50 ml cell extract; the concentration used in this assay corresponds to 1 tablet in 100 ml).
• 1.) Stop solution: Dulbecco's PBS (PAA, Pasching, Austria), 25 mM EDTA (Sigma), 25 μM ATP (Roche), 0.05% Triton X-100 (Sigma); • 2.) Saturation buffer: Dulbecco's PBS (PAA, Pasching, Austria), 100 μM ATP (Roche), 0.2% Triton X-100 (Sigma); • 3.) Wash buffer: Dulbecco's PBS (PAA, Pasching, Austria). Enzyme Solution:
ALK1 (Invitrogen, Paisley, United Kingdom) stock solution (35.7 ng/μl) is diluted to 4 ng/μl; final concentration in the reaction is 1 ng/μl.
Dephosphorylated α-casein (Sigma) is biotinylated according to the manufacturer's protocol (Pierce, Bonn, Germany) resulting in a stock solution of 61.6 μM. Briefly, EZ-Link® Biotin reagent (sulfosuccinimidyl-6-(biotinamido)hexanoate; Pierce, Bonn, Germany) is added in equal molarity to α-casein and incubated on ice for 2 h. Afterwards, the biotin reagent is removed by dialysis (2×2 h and overnight).
A 100 mM solution of cold (unlabelled) ATP (Roche) is diluted 1:100 before each test. For the substrate mix, α-casein is diluted to 2.22 μM resulting in a final concentration of 1 μM α-casein in the reaction. Additionally, cold ATP is added to give a 1.11 μM solution which results in a final concentration of 500 nM in the reaction.
Radioactive ATP Solution:
The stock solution (9.25 MBq/25 μl of ^33P-ATP; Perkin Elmer, Rodgau, Germany) is diluted to 651.2 Bq/μl.
Compounds are dissolved in 100% DMSO (10 mM stock solution) and diluted to 2 mM. Further dilutions are made stepwise 1:3.16 in DMSO.
A volume of 9 μl substrate solution is provided into each well of a 384 well microliter plate (Greiner Bio-One, Solingen, Germany), 1 μl compound solution and 5 μl of the radioactive ATP solution are added. Enzyme reaction starts with addition of 5 μl of enzyme solution. The mixture is incubated for 60 minutes at room temperature and then stopped by addition of 10 μl stop solution. The 384 well microliter flashplates (Perkin Elmer, Rodgau, Germany) are saturated with 50 μl saturation buffer per well for at least 60 minutes. Subsequently, a volume of 20 μl is discarded and replaced with 20 μl of the stopped ALK1 reaction mixture. Binding of biotinylated substrate to the flashplate is allowed for by overnight incubation at room temperature. Bound substrate is separated from unbound components through repeated washing steps (3×50 μl washing buffer per well). Finally, 50 μl washing buffer is added, and the scintillation signal (cpm) is measured in a suitable counter (Perkin Elmer, Rodgau, Germany).

T1 sequence (P37023 22-503): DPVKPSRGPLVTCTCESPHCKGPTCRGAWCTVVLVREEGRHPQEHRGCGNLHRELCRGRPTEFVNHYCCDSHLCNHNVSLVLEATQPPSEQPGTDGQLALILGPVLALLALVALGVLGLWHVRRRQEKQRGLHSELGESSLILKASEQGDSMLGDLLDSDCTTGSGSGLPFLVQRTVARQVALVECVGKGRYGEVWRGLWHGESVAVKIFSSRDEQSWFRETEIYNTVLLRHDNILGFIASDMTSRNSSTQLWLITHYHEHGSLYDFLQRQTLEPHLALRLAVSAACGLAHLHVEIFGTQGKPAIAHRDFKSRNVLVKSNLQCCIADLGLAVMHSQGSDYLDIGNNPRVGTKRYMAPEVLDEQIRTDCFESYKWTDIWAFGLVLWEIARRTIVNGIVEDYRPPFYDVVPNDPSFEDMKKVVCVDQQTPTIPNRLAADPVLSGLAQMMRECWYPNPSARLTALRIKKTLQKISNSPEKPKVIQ

In the case of CCc1cc(-c2cc(C3CCNC3)n3ncnc(N)c23)cc(F)c1CO (racemic) [Example 37, rac-{4-[4-Amino-7-(pyrrolidin-3-yl)pyrrolo[2,1-f][1,2,4]triazin-5-yl]-2-ethyl-6-fluorophenyl}-methanol], the IC50 [1] is reported as < 3 nM and the IC50 [2] is reported as 330 nM.
CCc1cc(-c2cc(C3CCCNC3)n3ncnc(N)c23)cc(F)c1CO (racemic) [Example 38, rac-{4-[4-Amino-7-(piperidin-3-yl)pyrrolo[2,1-f][1,2,4]triazin-5-yl]-2-ethyl-6-fluorophenyl}-methanol] gave an IC50 [1] of 4 nM.
With CCc1cc(-c2cc(C(O)C3CC3)n3ncnc(N)c23)cc(F)c1CO (racemic) [Example 39, rac-{4-Amino-5-[3-ethyl-5-fluoro-4-(hydroxymethyl)phenyl]pyrrolo[2,1-f][1,2,4]triazin-7-yl}-(cyclopropyl)methanol] the IC50 [1] was 5.7 nM and the IC50 [2] was 500 nM.
Work on CCc1cc(-c2cc([C@H]3CC[C@H](O)CC3)n3ncnc(N)c23)cc(F)c1CO [Example 28, trans-4-{4-Amino-5-[3-ethyl-5-fluoro-4-(hydroxymethyl)phenyl]pyrrolo[2,1-f][1,2,4]triazin-7-yl}-cyclohexanol] yielded an IC50 [1] of 124 nM and an IC50 [3] of 170 nM.
